In patent US20220112309A1, “BISPECIFIC ANTIBODY AGAINST CD3 AND CD20 IN COMBINATION THERAPY FOR TREATING DIFFUSE LARGE B-CELL LYMPHOMA” (GENMAB A/S, priority 2020, published 2022):

How the values were obtained:
Raji [1] = format: cell-based; details: 48 hours
Description: (§1) Briefly, human Burkitt lymphoma (Raji) and DLBCL (SU-DHL-4) cell lines were used as target cells. Cells were cultured in culture medium (RPMI 1640 with HEPES and L-Glutamine supplemented with 10% heat-inactivated donor bovine serum with iron, and 1% [v/v] penicillin/streptomycin) to which 2 mM L-glutamine and 1 mM sodium pyruvate were added, at 37° C., 5% CO2. T cells, isolated from human healthy donor buffy coats (Sanquin) by negative selection using the RosetteSep™ Human T Cell Enrichment Cocktail (Stemcell Technologies), followed by density centrifugation over a Ficoll gradient, both according to the manufacturer's instructions, were used as effector cells. Isolated cells were washed twice in phosphate buffered saline (PBS) and counted using acridine orange/propidium iodide (AO/PI) viability staining solution (Nexcelom Bioscience) on a Cellometer® Auto 2000 Cell Viability Counter. […] B-cell viability and T-cell activation were measured by flow cytometry (count of CD22-positive cells; expression of the T-cell activation markers CD69, CD25, programmed cell death protein 1 (PD-1), and CD107 [lysosomal associated membrane protein 1; LAMP-1] on CD4+ and CD8+ T cells). Absolute cell numbers were determined by adding Accucheck Counting beads (100 μL/well) (Thermofisher) and calculated as follows:
(§2) Correction factor=([bead count1+bead count2]/average bead countplate)
(§3) Absolute cell number=[cell countsample/correction factor] • The percentage cytotoxicity was calculated as follows:
(§4) % cytotoxicity=100−([absolute cell numbersample/absolute cell numberno antibody]×100%)

SU-DHL-4 [2] = format: cell-based; details: SU-DHL-4 cells, 48 hours
Description: as §1, §2, §3, §4

SU-DHL-4 [3] = test: in vitro T-cell activation assay, T cells incubated with SU-DHL-4 cells; format: cell-based, human; details: SU-DHL-4 target cells, 48 hours
Description: as §1, with “follows: […]” for “follows:”

R/R B-NHL = test: ongoing clinical trial of epcoritamab monotherapy (NCT03625037); format: in vivo
Text: Epcoritamab as monotherapy is currently in a clinical trial for the treatment of relapsed/refractory (R/R) B-NHL (ClinicalTrials.gov Identifier: NCT03625037).

Raji [4] = test: in vitro T-cell activation assay, T cells incubated with Raji cells; format: cell-based, human; details: Raji target cells, 48 hours
Description: as §1, with “follows: […]” for “follows:”

[5] = gemcitabine and/or oxaliplatin at EC30 concentrations, with or without epcoritamab
[6] = epcoritamab alone 0.01 pg/mL-100 ng/mL
[7] = epcoritamab 0.01 pg/mL-100 ng/mL, flow cytometry
[8] = gemcitabine 1 nM, oxaliplatin 0.3 μM

Compound: Nc1ccn(C2OC(CO)C(O)C2(F)F)c(=O)n1 (stereo not shown) [gemcitabine, 4-amino-1-[3,3-difluoro-4-hydroxy-5-(hydroxymethyl)oxolan-2-yl]-1,2-dihydropyrimidin-2-one, reference compound]
- cytotoxicity of B cells (Raji [1]; [5]): induced cytotoxicity of B cells
- cytotoxicity of B cells (SU-DHL-4 [2]; [5]): induced cytotoxicity of B cells

Compound: epcoritamab: IgG1 bispecific CD3xCD20 antibody; heavy and light chain pairs of SEQ ID NOs: 24 and 25, and 26 and 27; CAS 2134641-34-0
- T-cell-mediated cytotoxicity (decrease in the number of viable B cells) (Raji [1]; [6]): concentration-dependent T-cell-mediated cytotoxicity
- T-cell-mediated cytotoxicity (decrease in the number of viable B cells) (SU-DHL-4 [2]; [6]): concentration-dependent T-cell-mediated cytotoxicity
- T-cell activation (upregulation of CD69, CD25, PD-1, and LAMP-1 expression) (SU-DHL-4 [3]; [7]): concentration-dependent activation of both CD4+ (data not shown) and CD8+ T cells
- Epcoritamab-induced T-cell activation in the presence of gemcitabine, oxaliplatin, or the combination (SU-DHL-4 [3]; [8]): not affected
- dose-limiting toxicities (R/R B-NHL; human, in vivo): no dose-limiting toxicities reported
- tolerated dose (R/R B-NHL; monotherapy, R/R B-NHL patients, preliminary data): tolerated at doses up to at least 48 mg, including 60 mg
- T-cell activation (upregulation of CD69, CD25, PD-1, and LAMP-1 expression) (Raji [4]; [7]): concentration-dependent activation of both CD4+ (data not shown) and CD8+ T cells
- Epcoritamab-induced T-cell activation in the presence of gemcitabine, oxaliplatin, or the combination (Raji [4]; [8]): not affected
